Data: patent EP1652839A2, “Drug efflux pump inhibitor” (priority 1999, dated 2001)

Tested on: Pseudomonas aeruginosa PAM 1723 strain highly expressing the drug efflux pump
Assay: Effect of combinational use with an antimicrobial agent on multidrug resistant Pseudomonas aeruginosa (broth culture, transmittance and turbidity readout)
Type: cell-based
Conditions: minimum concentration of compound required to enhance antibacterial activity, MHB, 1 × 10^6 CFU/ml; for Combination with AZT: azthreonam (AZT) at 1/8 or less of the minimum inhibitory concentration, combinational use for 18 hours; for Combination with LVFX: levofloxacin (LVFX) at 1/8 or less of the minimum inhibitory concentration, combinational use for 7.5 hours
From the text: Test Example 1: Effect of combinational use with an antimicrobial agent on multidrug resistant Pseudomonas aeruginosa
As multidrug resistant Pseudomonas aeruginosa, Pseudomonas aeruginosa PAM 1723 strain highly expressing the drug efflux pump was used. As antimicrobial drugs for the combinational uses, levofloxacin (LVFX) as a quinolone antibacterial agent and azthreonam (AZT) as a monobactam antibiotic were used.
Each of the compounds shown in Table 1 with Example No., which falls within the compounds of the present invention, was subjected to the measurement of its minimum concentration (µg/ml) that was required to enhance the antibacterial activity of the antibacterial agent when the test compound was used in combination with the antibacterial drug applied at a concentration of 1/4, or 1/8 or less of the minimum inhibitory concentration against the PAM 1723 strain. […] As for levofloxacin, effects were indicated as combinational uses for 7.5 hours, and as for azthreonam, effects as combinational uses for 18 hours was indicated. The Müller-Hinton broth (MHB, Difco) was used as a medium, and the inoculated amount of the bacteria was 1 × 10^6 CFU/ml. Effects were determined by optically measuring the transmittance of the bacterial culture with time, and visually observing the turbidity of the medium.

| Compound | Combination with AZT | Combination with LVFX |
| --- | --- | --- |
| O=C(Cc1ccccc1C(=O)O)Nc1cccc(/C=C/c2nc(-c3ccccc3)cs2)c1 [Example 1, 2-(2-Oxo-2-3-[(E)-2-(4-phenyl-1,3-thiazol-2-yl)-1-ethenyl]anilinoethyl)-benzoic acid] | 1.25 µg/mL | <=0.63 µg/ml |
| O=C(Cc1ccccc1C(=O)O)Nc1cccc(OCc2ccc3ccccc3n2)c1 [Example 2, 2-{2-Oxo-2-[3-(2-quinolylmethoxy)anilino]ethyl}benzoic acid] | 5 µg/mL | 20 µg/mL |
| CC(C)c1nc(/C=C/c2cccc(NC(=O)Cc3ccccc3C(=O)O)c2)sc1Cl [Example 3, 2-(2-3-[(E)-2-(4-Isopropyl-5-chloro-1,3-thiazol-2-yl)-1-ethenyl]anilino-2-oxoethyl)benzoic acid] |  | <=2.5 µg/ml |
| O=C(Cc1ccccc1C(=O)O)Nc1cccc(/C=C/c2ccc(-c3ccccc3)o2)c1 [Example 4, 2-[2-Oxo-2-{3-[(E)-(5-phenyl-2-furyl)-1-ethenyl]anilino}ethyl]benzoic acid] | 2.5 µg/mL | 10 µg/mL |
| CC(C)c1nc(/C=C/c2cccc(NC(=O)Cc3ccccc3C(=O)O)c2)sc1N [Example 5, 2-{2-[3-((E)-2-{5-Amino-4-isopropyl-1,3-thiazol-2-yl}-1-ethenyl)amino]-2-oxoethyl}benzoic acid] | 20 µg/mL | 10 µg/mL |
| O=C(Cc1ccccc1C(=O)O)Nc1cccc(/C=C/c2nc3cccnc3s2)c1 [Example 6, 2-(2-Oxo-2-{3-[(E)-2-(pyrido[3,2-d][1,3]thiazol-2-yl)-1-ethenyl]anilino}ethyl)benzoic acid] | 5 µg/mL | 20 µg/mL |
| O=C(Cc1ccccc1C(=O)O)Nc1cccc(/C=C/c2nc3ccccc3o2)c1 [Example 7, 2-(2-3-[(E)-2-(1,3-Benzoxazol-2-yl)-1-ethenyl]anilino-2-oxoethyl)benzoic acid] | 5 µg/mL | 2.5 µg/mL |
| O=C(Cc1ccccc1C(=O)O)Nc1cccc(/C=C/c2nc(-c3ccncc3)cs2)c1 [Example 8, 2-[2-Oxo-2-(3-(E)-2-[4-(4-pyridyl)-1,3-thiazol-2-yl]-1-ethylanilino)ethyl]-benzoic acid] | 2.5 µg/mL | 0.63 µg/mL |
| CC(C)c1cccc(COc2cccc(NC(=O)Cc3ccccc3C(=O)O)c2)n1 [Example 9, 2-(2-3-[(6-Isopropyl-2-pyridyl)methoxy]anilino-2-oxoethyl)benzoic acid] | 2.5 µg/mL | 0.63 µg/mL |
| O=C(Cc1ccccc1C(=O)O)Nc1cccc(CCc2nc(-c3ccccc3)cs2)c1 [Example 10, 2-(2-Oxo-2-{3-[2-(4-phenyl-1,3-thiazol-2-yl)ethyl]anilino}ethyl)benzoic acid] | 2.5 µg/mL | 20 µg/mL |
| O=C(Cc1ccccc1C(=O)O)Nc1cccc(C2CC2c2nc(-c3ccccc3)cs2)c1 (centres unmarked) [Example 11, 2-(2-Oxo-2-{3-[2-(4-phenyl-1,3-thiazol-2-yl)cyclopropyl]anilino}ethyl)benzoic acid] | 40 µg/mL | >40 µg/mL |
| O=C(Cc1ccccc1C(=O)O)Nc1cccc(C(=O)Nc2nc(-c3ccccc3)cs2)c1 [Example 12, 2-(2-Oxo-2-(3-((4-phenyl-1,3-thiazol-2-yl)amino)carbonylanilino)ethyl)-benzoic acid] | 20 µg/mL | >40 µg/mL |
| CC(C)c1nsc(COc2cc(NC(=O)Cc3ccccc3C(=O)O)c(F)cc2F)n1 [Example 13, 2-(2-2,4-Difluoro-5-[(3-isopropyl-1,2,4-thiadiazol-5-yl)methoxy]anilino-2-oxoethyl)benzoic acid] | 1.25 µg/mL | <=0.63 µg/ml |
| CC(C)c1csc(COc2cc(N)cc(NC(=O)Cc3ccccc3C(=O)O)c2)n1 [Example 14, 2-(3-Amino-5-((4-isopropyl-1,3-thiazol-2-yl)methoxy)anilino-2-oxoethyl)-benzoic acid] | 10 µg/mL | 10 µg/mL |
| CC(C)c1csc(/C=C/c2cncc(NC(=O)[C@H]3OC(C)(C)O[C@@H]3C(=O)O)c2)n1 [Example 15, (4S,5S)-5-[(5-[(E)-2-(4-Isopropyl-1,3-thiazol-2-yl)-1-ethenyl]-3-pyridyl-amino)carbonyl]-2,2-dimethyl-1,3-dioxolane-4-carboxylic acid] | 40 µg/mL | 20 µg/mL |
| COC(=O)c1cc(NC(=O)Cc2ccccc2C(=O)O)cc(OCc2nc(C(C)C)cs2)c1 [Example 16, 2-(3-((4-Isopropyl-1,3-thiazol-2-yl)methoxy)-5-(methoxycarbonyl)anilino)-2-oxoethylbenzoic acid] | 160 µg/mL | 160 µg/mL |
| CC(C)c1csc(/C=C/c2cncc(NC(=O)Cc3ccccc3C(=O)O)c2)n1 [Example 17, 2-[2-(5-[(E)-2-(4-Isopropyl-1,3-thiazol-2-yl)-1-ethenyl]-3-pyridylamino)-2-oxoethyl]benzoic acid] | 1.25 µg/mL | 0.63 µg/mL |
| CC(C)c1csc(/C=C/c2cccc(NC(=O)Cc3ccccc3C(=O)O)n2)n1 [Example 18, 2-[2-(6-[(E)-2-(4-Isopropyl-1,3-thiazol-2-yl)-1-ethenyl]-2-pyridylamino)-2-oxoethyl]benzoic acid] | 20 µg/mL | 10 µg/mL |
